Reference: US20240287108A1, “nSMASE2 INHIBITOR PRODRUGS WITH ENHANCED ORAL AND BRAIN EXPOSURES” (The Johns Hopkins University, priority 2021, published 2024)
Like-named read-outs stand apart in the source and are kept apart here.

Assays:
[1] = in vivo pharmacokinetic studies in mice (Example 1); set-up: species or system mouse; details: mice; for AUC / Tmax / Cmax: po
Description: 1.2.1 In vitro metabolic stability assessment. In vitro metabolic stability assessment was performed using mouse plasma, and liver homogenates. For the liver homogenates, washed tissues were diluted 10-fold in 0.1 M potassium phosphate buffer and homogenized using a probe sonicator. To evaluate the stability of the intact prodrug over time, each of the tissue matrix were aliquoted to 1 mL and then spiked with 10 μM of corresponding prodrugs followed by incubation in an orbital shaker at 37° C. for 1 h (in triplicate). Sample from each incubation at predetermined time points (0 min, and 1 h) was quenched with three volumes of acetonitrile containing the internal standard (IS: losartan: 0.5 μm). Samples were vortex-mixed for 30 secs and centrifuged at 10,000 RPM for 10 min at 4° C. Disappearance of the intact compound was measured using liquid chromatography tandem mass spectrometry (LC-MS/MS). 1.2.2 In vivo pharmacokinetic studies in mice. Male CD-1 mice (n=3) were used to study the pharmacokinetic profiles of representive prodrug compounds. […] Blood and brain were collected after sacrificing the mice at predetermined time points. Plasma was harvested from blood by centrifugation at 3,000 RPM for 15 min and stored at −80° C. Brain tissues were harvested following blood collection and immediately snap frozen in liquid nitrogen and stored at −80° C. until LC-MS/MS analysis. […] Brain tissues were diluted 1:5 w/v with acetonitrile containing losartan (0.5 μm) and homogenized, followed by vortex-mixing and centrifugation at 10,000 RPM for 10 min at 4° C. A 50 μL aliquot of the supernatant was diluted with 50 μL of water and transferred to 250 μL polypropylene autosampler vials sealed with teflon caps. Then, 2 μL of the sample was injected into the LC-MS/MS system for analysis.

[2] = in vitro stability in CES1−/− mouse brain homogenates; format: in vitro ADME; details: CES1−/− mouse brain homogenate, 10 μM, 37° C.
Description: (§1) All synthesized prodrugs were next screened for in vitro stability in carboxylesterase 1 knockout (CES1^−/−) mouse plasma, as well as CES1^−/− mouse brain and liver homogenates (Table 2-1). We have previously reported that CES1^−/− mouse model recapitulates human prodrug metabolism.
(§2) For the tissue homogenates, washed tissues were diluted 10-fold in 0.1 M potassium phosphate buffer and homogenized using a probe sonicator. To evaluate the stability of the intact prodrug over time, each of the crude homogenates and plasma were aliquoted to 1 mL and then spiked with a final assay concentration of 10 μM of each prodrug followed by incubation in an orbital shaker at 37° C. for 1 h (in triplicate). Sample from each incubation at predetermined time points (0 min, and 1 h) was quenched with three volumes of acetonitrile containing the internal standard (IS; losartan: 0.5 μm). Samples were vortex-mixed for 30 secs and centrifuged at 10,000×g for 10 min at 4° C. Disappearance of intact prodrugs from these samples were performed on a Dionex ultra-high-performance LC system coupled with Q Exactive Focus orbitrap mass spectrometer (Thermo Fisher Scientific Inc., Waltham MA). […] The mobile phase consisted of 0.1% formic acid in water and 0.1% formic acid in acetonitrile. Pumps were operated at a flow rate of 0.4 mL/min for 9 min using gradient elution. The mass spectrometer controlled by Xcalibur software 4.0.27.13 (Thermo Scientific) was operated with a heated electrospray ionization (HESI) ion source in positive ionization mode. Quantification of the prodrugs were performed in the full-scan mode (from m/z 50 to 1600) by comparing t=0 samples with t=60 min samples.

[3] = in vitro stability in CES1−/− mouse liver homogenates; format: in vitro ADME; details: CES1−/− mouse liver homogenate, 10 μM, 37° C.
Description: as §1, §2

[4] = in vitro stability in CES1−/− mouse plasma; format: in vitro ADME; details: 10 μM
Description: as §1, with “metabolism. Tenora et al., 2019.” for “metabolism.”
Zimmermann et al., 2018. For the tissue homogenates, washed tissues were diluted 10-fold in 0.1 M potassium phosphate buffer and homogenized using a probe sonicator. To evaluate the stability of the intact prodrug over time, each of the crude homogenates and plasma were aliquoted to 1 mL and then spiked with a final assay concentration of 10 μM of each prodrug followed by incubation in an orbital shaker at 37° C. for 1 h (in triplicate). Sample from each incubation at predetermined time points (0 min, and 1 h) was quenched with three volumes of acetonitrile containing the internal standard (IS; losartan: 0.5 μm). Samples were vortex-mixed for 30 secs and centrifuged at 10,000×g for 10 min at 4° C. Disappearance of intact prodrugs from these samples were performed on a Dionex ultra-high-performance LC system coupled with Q Exactive Focus orbitrap mass spectrometer (Thermo Fisher Scientific Inc., Waltham MA). The separation of analytes was achieved using the Agilent Eclipse Plus column (100×2.1 mm i.d.; maintained at 35° C.) packed with a 1.8 μm C18 stationary phase. The mobile phase consisted of 0.1% formic acid in water and 0.1% formic acid in acetonitrile. Pumps were operated at a flow rate of 0.4 mL/min for 9 min using gradient elution. The mass spectrometer controlled by Xcalibur software 4.0.27.13 (Thermo Scientific) was operated with a heated electrospray ionization (HESI) ion source in positive ionization mode. Quantification of the prodrugs were performed in the full-scan mode (from m/z 50 to 1600) by comparing t=0 samples with t=60 min samples.

[5] = male, CD-1, mouse, intact prodrug, brain, 10 mg/kg eqv
[6] = male, CD-1, mouse, intact prodrug, plasma, 10 mg/kg eqv
[7] = CES1−/− (carboxylesterase 1 knockout), mouse, plasma

SMILES	Stability in mouse (% remaining at 1h) Mean + Std Error, Brain [2] [%]	Stability in mouse (% remaining at 1h) Mean + Std Error, Liver [3] [%]	Stability in mouse (% remaining at 1h) Mean + Std Error, Plasma ([4]; CES1−/− mouse plasma, 37° C.) [%]	also measured
COc1cc(-c2nc(-c3ccccc3)c(-c3cccs3)[nH]2)cc(OC)c1OC(=O)c1ccc[n+](C)c1.[I-] [Compound 6]				brain levels of DPTIP ([1]; oral 10 mg/kg DPTIP equivalent): approximately 150 nM
CCCCCC(=O)Oc1c(OC)cc(-c2nc(-c3ccccc3)c(-c3cccs3)[nH]2)cc1OC [Compound P2, 2,6-Dimethoxy-4-(4-phenyl-5-(thiophen-2-yl)-1H-imidazol-2-yl)phenyl hexanoate]				Kp ([1]; male, CD-1, mouse, brain and plasma, oral, intact prodrug, 10 mg/kg eqv, read-out: Brain:Plasma ratio): 0.23; AUC [1, 5]: 1.66 nM·h; Tmax [1, 5]: 15 min; Cmax ([1]; male, CD-1, mouse, intact prodrug, brain, 10 mg/kg eqv, read-out: Cmax): 9.8 ± 0.6 nM; AUC [1, 6]: 7.04 nM·h; Tmax [1, 6]: 15 min; Cmax ([1]; male, CD-1, mouse, intact prodrug, plasma, 10 mg/kg eqv, read-out: Cmax): 51.1 ± 4.6 nM
COc1cc(-c2nc(-c3ccccc3)c(-c3cccs3)[nH]2)cc(OC)c1OC(=O)C(C)(C)C [Compound P4, 2,6-Dimethoxy-4-(4-phenyl-5-(thiophen-2-yl)-1H-imidazol-2-yl)phenyl pivalate]	93 ± 1			
COc1cc(-c2nc(-c3ccccc3)c(-c3cccs3)[nH]2)cc(OC)c1OC(=O)N(C)C [Compound P5, 2,6-Dimethoxy-4-(4-phenyl-5-(thiophen-2-yl)-1H-imidazol-2-yl)phenyl dimethylcarbamate]	100 ± 2	100 ± 1	96 ± 3	Cmax ([1]; male, CD-1, mouse, in vivo, 10 mg/kg, oral 10 mg/kg DPTIP equivalent, read-out: plasma Cmax of intact prodrug): 4300 nM; improved oral absorption as intact versus DPTIP ([1]; plasma Cmax, oral 10 mg/kg DPTIP equivalent): 10 ×
CCCCCN(C)C(=O)Oc1c(OC)cc(-c2nc(-c3ccccc3)c(-c3cccs3)[nH]2)cc1OC [Compound P7, 2,6-Dimethoxy-4-(5-phenyl-4-(thiophen-2-yl)-1H-imidazol-2-yl)phenyl methyl (pentyl) carbamate]		85 ± 3	50 ± 2	
CCCCCNC(=O)Oc1c(OC)cc(-c2nc(-c3ccccc3)c(-c3cccs3)[nH]2)cc1OC [Compound P8, 2,6-Dimethoxy-4-(5-phenyl-4-(thiophen-2-yl)-1H-imidazol-2-yl)phenyl pentylcarbamate]		83 ± 2	60 ± 6	
CCCCCCCNC(=O)Oc1c(OC)cc(-c2nc(-c3ccccc3)c(-c3cccs3)[nH]2)cc1OC [Compound P9, 2,6-Dimethoxy-4-(5-phenyl-4-(thiophen-2-yl)-1H-imidazol-2-yl)phenyl heptylcarbamate]	84 ± 4	97 ± 4	60 ± 4	
CCC1CCCC(CC)N1C(=O)Oc1c(OC)cc(-c2nc(-c3ccccc3)c(-c3cccs3)[nH]2)cc1OC (centres unmarked) [Compound P10, 2,6-Dimethoxy-4-(5-phenyl-4-(thiophen-2-yl)-1H-imidazol-2-yl)phenyl 2,6-diethylpiperidine-1-carboxylate]	90 ± 1	51 ± 1		Stability in mouse (% remaining at 1h) Mean + Std Error, Plasma [4, 7]: 78 ± 5%
CCCN(CCC)C(=O)Oc1c(OC)cc(-c2nc(-c3ccccc3)c(-c3cccs3)[nH]2)cc1OC [Compound P11, 2,6-Dimethoxy-4-(5-phenyl-4-(thiophen-2-yl)-1H-imidazol-2-yl)phenyl dipropylcarbamate]	95 ± 4	62 ± 4	99 ± 2	
COc1cc(-c2nc(-c3ccccc3)c(-c3cccs3)[nH]2)cc(OC)c1OC(=O)N1C2CCCC1CC2 [Compound P12, 2,6-Dimethoxy-4-(5-phenyl-4-(thiophen-2-yl)-1H-imidazol-2-yl)phenyl 8-azabicyclo[3.2.1]octane-8-carboxylate]				Stability in mouse (% remaining at 1h) Mean + Std Error, Plasma [4, 7]: 85 ± 9%
COc1cc(-c2nc(-c3ccccc3)c(-c3cccs3)[nH]2)cc(OC)c1OC(=O)N1C2CCC1CC(N1CCCCC1)C2 (centres unmarked) [Compound P13, 2,6-Dimethoxy-4-(5-phenyl-4-(thiophen-2-yl)-1H-imidazol-2-yl)phenyl 3-(piperidin-1-yl)-8-azabicyclo[3.2.1]octane-8-carboxylate]	84 ± 1	78 ± 4	87 ± 2	
COc1cc(-c2nc(-c3ccccc3)c(-c3cccs3)[nH]2)cc(OC)c1OP(=O)(O)O [Compound P14, 2,6-Dimethoxy-4-(4-phenyl-5-(thiophen-2-yl)-1H-imidazol-2-yl)phenyl dihydrogen phosphate]	102 ± 2	55 ± 1	91 ± 4	
COc1cc(-c2nc(-c3ccccc3)c(-c3cccs3)[nH]2)cc(OC)c1OCOP(=O)(O)O [Compound P15, (2,6-Dimethoxy-4-(4-phenyl-5-(thiophen-2-yl)-1H-imidazol-2-yl)phenoxy) methyl dihydrogen phosphate]		21 ± 0		
